From patent US7211566B2 (Universite De Sherbrooke, priority 2003, dated 2007) come the findings set out here.

The data set in a line: Ex vivo stability in rat tissue extracts from liver, lung and kidney (HPLC). The format is in vitro ADME. Conditions: Wistar, after 24 hours, read-out: parent remaining. How it is done:
Liver, lung and kidneys were collected from Wistar rats and resuspended in nine volume of PBS. The tissues were homogenized for 3×15 sec. on ice with a Polytron homogenizer and were centrifuged at 3000 rpm for 15 min. at 4° C. The supernatant was collected and kept at −80° C. until used.
Stability studies were initiated by adding the peptide […] to 50–100 μl of either plasma, serum or extract (10–100 μM final concentration) and incubated for 10 min to 24 hours at 37° C. The reaction was stopped by the addition of ice-cold acetonitrile (75% final concentration) containing 10 μM Lys-desArg^9BK (which serves as an internal control). The samples were vortexed and centrifuged at 13000 rpm for 20 min at 4° C. in a microfuge. The clear supernatant was transferred to a 1 ml tube and the samples were evaporated to dryness by lyophilisation. Finally, the samples were resuspended in 50 μl of HPLC-grade water.
Quantitative analysis of the extracted compound and standard controls was carried out using an Agilent reverse-phase HPLC (model 1100) coupled to a 4.6×150 mm Zorbax 300SB-C18 column (5 μm particle size) and equipped with a diode array detector. […] The elution positions and quantification of compounds were determined by following the absorbance at 226 nm. […]

Square brackets hold non-standard residues; d marks the D form. Peptide text beside a SMILES is read from it. Oic = O=C(O)[C@@H]1C[C@@H]2CCCC[C@@H]2N1; d2Nal = N[C@H](Cc1ccc2ccccc2c1)C(=O)O; αMeF = C[C@](N)(Cc1ccccc1)C(=O)O; Orn = NCCC[C@H](N)C(=O)O

Regarding `CC[C@H](C)[C@H](NC(=O)[C@@H](Cc1ccc2ccccc2c1)NC(=O)[C@H](CO)NC(=O)[C@](C)(Cc1ccccc1)NC(=O)CNC(=O)[C@@H]1CCCN1C(=O)[C@@H]1C[C@@H]2CCCC[C@@H]2N1C(=O)[C@H](CCCNC(=N)N)NC(=O)[C@H](CCCN)NC(C)=O)C(=O)O` [compound c, Ac-Orn[Oic^2,(α-Me)Phe^5,D-βNal^7,Ile^8]desArg^9BK] (Ac-[Orn]R[Oic]PG[αMeF]S[d2Nal]I-OH), the share remaining (in general, what is left of the initial amount, in per cent) at 24 h is more than 75%.
